Source: US20230416692A1 (BOARD OF REGENTS, THE UNIVERSITY OF TEXAS SYSTEM, priority 2020, published 2023)
Where two headings read alike, the source gives them in different places.

Experiments:
SARS-CoV-2-Nluc = assay: microbe, parasite or virus in culture; assay type: cell-based
[1] = Severe acute respiratory syndrome coronavirus 2, 48 h

Compound	CC50 (A549-hACE2 cells; human) [µM]	EC50 (SARS-CoV-2-Nluc; [1]) [µM]	other results
Nc1ccn([C@@H]2O[C@@](CO)(CCl)[C@@H](O)[C@H]2F)c(=O)n1 [ALS-8112]	> 50	> 10	–
O=C1c2c(O)c(=O)ccn2N([C@@H]2c3ccccc3SCc3c2ccc(F)c3F)[C@@H]2COCCN12 [Baloxavir]	47 ± 1.3	> 10	–
Nc1ccn(C[C@@H](CO)OCP(=O)(O)O)c(=O)n1 [Cidofovir]	> 50	> 10	–
CC(C)c1nc(CN(C)C(=O)N[C@@H](CCN2CCOCC2)C(=O)N[C@H](CC[C@H](Cc2ccccc2)NC(=O)OCc2cncs2)Cc2ccccc2)cs1 [Cobicistat]	47.3 ± 2.5	–	SI (selectivity index) (SARS-CoV-2-Nluc): 17.3; EC50 (SARS-CoV-2-Nluc; Severe acute respiratory syndrome coronavirus 2): 0.77 to 2.74 µM
CC(C)CN(C[C@@H](O)[C@H](Cc1ccccc1)NC(=O)O[C@H]1CO[C@H]2OCC[C@H]21)S(=O)(=O)c1ccc(N)cc1 [Darunavir]	> 50	> 10	activity against SARS-CoV-2-Nluc (in words) (SARS-CoV-2-Nluc): inactive
C=C1[C@H](CO)[C@@H](O)C[C@@H]1n1cnc2c(=O)[nH]c(N)nc21 [Entecavir]	> 50	> 10	–
NC(=O)c1nc(F)c[nH]c1=O [Favipiravir]	> 50	> 10	–
CC(C)OC(=O)[C@H](C)N[P@+]([O-])(OC[C@H]1O[C@@](C#N)(c2ccc3c(N)ncnn23)[C@](C)(O)[C@@H]1OC(=O)C(C)C)Oc1ccccc1 [GS-6620]	–	–	CC50 (A549-hACE2 cells): > 50 µM; EC50 (SARS-CoV-2-Nluc; read-out: EC50): > 10 µM
COc1ccc2c(O[C@@H]3C[C@H]4C(=O)N[C@]5(P(=O)(O)Cc6c(F)cccc6F)C[C@H]5CCCCCCC[C@H](NC(=O)OC5CCCC5)C(=O)N4C3)cc(-c3csc(NC(C)C)n3)nc2c1Cl [GS-9256]	–	–	CC50 (A549-hACE2 cells): 31.8 ± 10.9 µM; EC50 (SARS-CoV-2-Nluc; read-out: EC50): > 10 µM
CC[C@@H]1C[C@]1(NC(=O)[C@@H]1C[C@@H](Oc2cc(-c3csc(NC(C)C)n3)nc3c(Cl)c(OCCN4CCOCC4)ccc23)CN1C(=O)[C@@H](NC(=O)O[C@@H]1C[C@@H]2C[C@@H]2C1)C(C)(C)C)C(=O)O [GS-9451]	–	–	CC50 (A549-hACE2 cells): > 50 µM; EC50 (SARS-CoV-2-Nluc; read-out: EC50): > 10 µM
C=CC(=O)N1CCC[C@@H](n2nc(-c3ccc(Oc4ccccc4)cc3)c3c(N)ncnc32)C1 [Ibrutinib]	> 50	> 10	–
CC(C)(C)NC(=O)[C@@H]1CN(Cc2cccnc2)CCN1C[C@@H](O)C[C@@H](Cc1ccccc1)C(=O)N[C@H]1c2ccccc2C[C@H]1O [Indinavir]	> 50	> 10	activity against SARS-CoV-2-Nluc (in words) (SARS-CoV-2-Nluc): inactive
COC(=O)N[C@H](C(=O)N1CC2(CC2)C[C@H]1c1ncc(-c2ccc3c(c2)C(F)(F)c2cc(-c4ccc5nc([C@@H]6[C@H]7CC[C@H](C7)N6C(=O)[C@@H](NC(=O)OC)C(C)C)[nH]c5c4)ccc2-3)[nH]1)C(C)C [Ledapisvir]	> 50	> 10	activity against SARS-CoV-2-Nluc (in words) (SARS-CoV-2-Nluc): inactive
C[C@@]1(O)[C@H](O)[C@@H](CO)O[C@H]1n1ccc2c(N)ncnc21 [MK-0608]	–	–	CC50 (A549-hACE2 cells): > 50 µM; EC50 (SARS-CoV-2-Nluc; read-out: EC50): > 10 µM
O=C(Nc1ccc([N+](=O)[O-])cc1Cl)c1cc(Cl)ccc1O [Niclosamide]	1.28 ± 0.23	0.715	SI (selectivity index) (SARS-CoV-2-Nluc): 1.8
CC(C)[C@@]1(C(=O)N[C@H]2CC(=O)O[C@]2(O)CF)CC(c2nccc3ccccc23)=NO1 [Nivocasan]	–	–	CC50 (A549-hACE2 cells): > 50 µM; activity against SARS-CoV-2-Nluc (in words) (SARS-CoV-2-Nluc): inactive; EC50 (SARS-CoV-2-Nluc; read-out: EC50): > 10 µM
CCC(CC)O[C@@H]1C=C(C(=O)O)C[C@H](N)[C@H]1NC(C)=O [Oseltamivir carboxylate]	> 50	> 10	–
CCOc1nc(N)nc2c1ncn2[C@@H]1O[C@@H]2COP(=O)(OC(C)C)O[C@H]2[C@@]1(C)F (stereo partly drawn) [PSI-352938]	> 50	> 10	–
Cc1cn2nc([C@@H]3CCCCN3C(=O)c3cc(Cl)ccc3NS(C)(=O)=O)cc2nc1N1CC[C@H](N)C1 [Presatovir]	–	2.53	–
CC(C)c1nc(CN(C)C(=O)N[C@H](C(=O)N[C@@H](Cc2ccccc2)C[C@H](O)[C@H](Cc2ccccc2)NC(=O)OCc2cncs2)C(C)C)cs1 [Ritonavir]	–	> 10	activity against SARS-CoV-2-Nluc (in words) (SARS-CoV-2-Nluc): inactive
